Measurements: patent EP0854192A2, “Production of human cathepsin and its use” (Takeda Chemical Industries, Ltd., priority 1992, dated 1994)
Where a SMILES comes first, the peptide text is derived from it. [ ]: non-standard residue; d: D form. The star is where a group is joined. Sta = CC(C)C[C@H](N)[C@@H](O)CC(=O)O; Isovaleryl = CC(C)CC(=O)*; Cbz = O=C(OCc1ccccc1)*; CHN2 = [N-]=[N+]=C*

Target: human cathepsin L (recombinant, of human renal origin cDNA, expressed in COS-7 cells, concentrated culture supernatant) (Homo sapiens, UniProt P07711)
Assay: Cathepsin L enzyme activity assay with synthetic substrate Z-Phe-Arg-NMec in the presence of enzyme inhibitors (method of Barrett and Kirschke)
Assay type: biochemical
Details: 30°C, 10 minutes; for remaining activity at 1 µM: 1 µM inhibitor added after enzyme activation
Method: The culture supernatant of COS-7 transformant prepared in Example 2 was concentrated about 20-fold with Centricut (produced by Kurabo Industries, Ltd., cut-off molecular weight = 10000) and assayed for cathepsin L enzyme activity, according to the method of A. J. Barrett and H. Kirschke [Methods in Enzymology 80, 535 (1981)]. To 25 µl of this concentrated culture supernatant were added 25 µl of 1 M sodium formate buffer (pH 3.0) and 10 µl of 0.1 M DTT, and water was added for a final volume of 250 µl, followed by incubation at 37°C for 30 seconds. After 125 µl of activating buffer (340 mM sodium acetate, 60 mM acetic acid, 4 mM EDTA disodium, pH 5.5) was added, the mixture was kept standing at 30°C for 1 minute for activation. The enzyme reaction was carried out at 30°C for 10 minutes in the presence of 125 µl of a synthetic substrate solution [20 µM Z-Phe-Arg-NMec (Z: benzyloxycarbonyl-, NMec: -7-(4-methyl)coumarylamide)], and stopped by the addition of 500 µl of a reaction stopper (100 mM sodium monochloroacetate, 30 mM sodium acetate, 70 mM acetic acid, pH 4.3). For a control experiment, a culture supernatant of COS-7 cells not expressing cathepsin L was used as an enzyme solution. After termination of the reaction, 100 µl of the reaction mixture was injected into a 96-well fluoroplate (produced by Labo Systems), and the fluorescence intensity of free 7-amino-4-methylcoumarin was determined at a wavelength of 450 nm (excitation wavelength = 365 nm) using a fluorometer FCA (produced by Baxter). In assessing the effects of the following enzyme inhibitors on the present enzyme activity, the inhibitor was added after the above enzyme activating operation. The enzyme inhibitors used were 10 µM leupeptin (cysteine protease inhibitor), 10 µM (p-amidinophenyl)methanesulfonyl fluoride hydrochloride (APMSF: serine protease inhibitor), 1 µM Z-Phe-Phe-CHN2 (cathepsin L inhibitor, -CHN2: -diazomethane) and 1 µM pepstatin A (aspartic acid protease inhibitor).

[1] = read-out: enzyme activity in the presence of enzyme inhibitor, in comparison with the inhibitor-free control

Sequence of human cathepsin L (recombinant, of human renal origin cDNA, expressed in COS-7 cells, concentrated culture supernatant) (P07711 114-333): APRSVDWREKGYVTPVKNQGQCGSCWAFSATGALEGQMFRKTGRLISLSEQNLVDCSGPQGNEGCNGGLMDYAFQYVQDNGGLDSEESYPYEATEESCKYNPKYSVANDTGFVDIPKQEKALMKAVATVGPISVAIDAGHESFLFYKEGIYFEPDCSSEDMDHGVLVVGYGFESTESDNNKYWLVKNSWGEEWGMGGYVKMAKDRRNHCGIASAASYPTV

| SMILES | remaining activity at 1 µM [1] [%] | further results |
| --- | --- | --- |
| Cl.N=C(N)c1ccc(CS(=O)(=O)F)cc1 [APMSF, (p-amidinophenyl)methanesulfonyl fluoride hydrochloride] | – | enzyme activity in the presence of enzyme inhibitor, in comparison with the inhibitor-free control (10 µM inhibitor added after enzyme activation, remaining activity): 79% |
| [N-]=[N+]=CC(=O)[C@H](Cc1ccccc1)NC(=O)[C@H](Cc1ccccc1)NC(=O)OCc1ccccc1 [Z-Phe-Phe-CHN2] (Cbz-Phe-Phe-CHN2) | 6.3 | – |
| CC(=O)N[C@@H](CC(C)C)C(=O)N[C@@H](CC(C)C)C(=O)N[C@H](C=O)CCCNC(=N)N [leupeptin] | – | remaining activity at 10 µM (10 µM inhibitor added after enzyme activation, read-out: enzyme activity in the presence of enzyme inhibitor, in comparison with the inhibitor-free control): 3.4% |
| CC(C)CC(=O)N[C@H](C(=O)N[C@H](C(=O)N[C@@H](CC(C)C)[C@@H](O)CC(=O)N[C@@H](C)C(=O)N[C@@H](CC(C)C)[C@@H](O)CC(=O)O)C(C)C)C(C)C [pepstatin A] (Isovaleryl-VV[Sta]A[Sta]-OH) | 99 | – |
